Data published in patent publication US20260091027A1, “STILBENE DERIVATIVES AS WELL AS PREPARATION METHOD THEREFOR AND USE THEREOF” (THEDERMA SHANGHAI CO., LTD., priority 2022, published 2026).

Assays:
AHR protein = target: T1, AHR protein (Homo sapiens, UniProt P35869); assay: Luciferase reporter gene assay (AHR agonistic activity); format: cell-based; details: HepG2-Lucia AHR cells, 24 h incubation; read-out: Luciferase-labeled human hepatoma cells (HepG2-Lucia) AHR agonist EC50
T1 construct: Human hepatoma cells HepG2-Lucia expressing AHR and luciferase; host or cells: HepG2-Lucia AHR (human hepatoma)
T1 sequence (P35869 11-848): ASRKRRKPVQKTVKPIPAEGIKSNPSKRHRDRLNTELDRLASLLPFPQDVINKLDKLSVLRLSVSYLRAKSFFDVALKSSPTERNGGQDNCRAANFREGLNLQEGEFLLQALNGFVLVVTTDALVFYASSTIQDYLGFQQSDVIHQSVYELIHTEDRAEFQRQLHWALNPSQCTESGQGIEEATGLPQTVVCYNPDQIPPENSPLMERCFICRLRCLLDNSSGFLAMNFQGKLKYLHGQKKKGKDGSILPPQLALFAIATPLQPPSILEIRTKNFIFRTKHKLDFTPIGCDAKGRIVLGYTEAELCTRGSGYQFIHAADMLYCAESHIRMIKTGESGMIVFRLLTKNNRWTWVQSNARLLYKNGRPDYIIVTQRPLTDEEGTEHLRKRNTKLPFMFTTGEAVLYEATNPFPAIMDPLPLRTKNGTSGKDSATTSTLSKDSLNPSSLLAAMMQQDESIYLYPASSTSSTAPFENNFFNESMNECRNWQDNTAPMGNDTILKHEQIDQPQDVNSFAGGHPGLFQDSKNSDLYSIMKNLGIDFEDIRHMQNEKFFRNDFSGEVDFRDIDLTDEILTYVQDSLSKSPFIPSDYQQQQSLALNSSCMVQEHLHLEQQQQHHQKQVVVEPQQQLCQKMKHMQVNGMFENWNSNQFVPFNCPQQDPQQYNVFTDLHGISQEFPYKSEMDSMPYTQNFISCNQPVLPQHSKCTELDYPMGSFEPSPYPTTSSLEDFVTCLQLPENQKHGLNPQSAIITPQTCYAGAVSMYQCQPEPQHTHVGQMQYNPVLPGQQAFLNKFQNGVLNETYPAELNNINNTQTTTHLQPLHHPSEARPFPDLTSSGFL
Protocol: Luciferase Reporter Gene Assay
In this test example, a luciferase reporter gene assay was performed to assay the agonistic activity effect of the compounds of the present disclosure on AHR protein.
• Human hepatoma cells HepG2-Lucia expressing AHR and luciferase were purchased from InvivoGen with the catalog number of hpgl-ahr;
• 1. HepG2-Lucia AHR cells were cultured in an EMEM medium containing 10% inactivated fetal bovine serum, 1×NEAA, penicillin-streptomycin, and 100 μg/mL Zeocin (bleomycin). The culture temperature was 37° C. and the concentration of carbon dioxide was 5%. • 2. After the cells were grown to about 80% confluency, the cells were digested, centrifuged, resuspended, and counted. The cells were seeded into a 384-well plate at 40 μL/well. • 3. Different concentrations of the test compounds were added by using ECHO at 40 nL/well. • 4. The 384-well plate to which the compounds were added was incubated in the incubator for 24 h. • 5. The supernatant was collected, a QUANTI-Luc Gold detection reagent was added, and the luminescence signal values were read by using the multifunctional microplate reader.

[1] = Illumination stability experiment (HPLC content); format: physicochemical; details: visible light 5000 ± 500 lx, ultraviolet light 250 μW/cm^2
Protocol: Test Example 2. Illumination Stability Experiment
• Stability chamber, model: ICH-110L, Memmert, USA; • High performance liquid chromatograph (HPLC), model: 1260, Agilent.
• Detection wavelength: 220 nM, 254 nM • Chromatographic column: Agilent ZORBAX SB-C8 4.6×250 mm, 5 μm • Mobile phase A: water • Mobile phase B: acetonitrile • Flow rate: 1.0 mL/min • Column temperature: 35° C. • Injection volume: 10 μL
• 1. A test compound was weighed out and placed into the stability chamber; • 2. a light source was turned on, with visible light of 5000±500 lx and ultraviolet light of 250 μW/cm^2; • 3. sampling was performed at 0 h, 8 h, 24 h, and 72 h, and the sample was dissolved in an aqueous acetonitrile solution with a volume fraction of 50%; • 4. HPLC was used for detection, and the content was determined by using the area normalization method.

| Compound | EC50 (AHR protein) [µM] | Liquid chromatography content (220 nM, %) ([1]; batch 2, 0 h) [%] | Liquid chromatography content (220 nM, %) ([1]; batch 2, 8 h) [%] | Liquid chromatography content (220 nM, %) ([1]; batch 2, 24 h) [%] | Liquid chromatography content (220 nM, %) ([1]; batch 2, 72 h) [%] | Liquid chromatography content (220 nM, %) ([1]; batch 1, 0 h) [%] | Liquid chromatography content (220 nM, %) ([1]; batch 1, 8 h) [%] | Liquid chromatography content (220 nM, %) ([1]; batch 1, 24 h) [%] | Liquid chromatography content (220 nM, %) ([1]; batch 1, 72 h) [%] |
| --- | --- | --- | --- | --- | --- | --- | --- | --- | --- |
| CC(C)c1c(O)cc(/C=C/c2ccccc2)c(Br)c1O [Compound 4, (E)-4-Bromo-2-isopropyl-5-styrylbenzene-1,3-diol] | 0.219 | – | – | – | – | – | – | – | – |
| CC(C)c1c(O)cc(/C=C/c2cccc(F)n2)cc1O [Comparative Example 1, reference compound] | – | 96.99 | 85.98 | 82.13 | 72.30 | – | – | – | – |
| CC(C)c1c(O)cc(/C=C/c2ccncc2)c(F)c1O [Compound 18, (E)-4-Fluoro-2-isopropyl-5-[2-(pyridin-4-yl)vinyl]benzene-1,3-diol] | 0.066 | – | – | – | – | – | – | – | – |
| CC(C)c1c(O)cc(/C=C/c2ccccc2)c(Cl)c1O [Compound 1, (E)-4-Chloro-2-isopropyl-5-styrylbenzene-1,3-diol] | 0.238 | – | – | – | – | – | – | – | – |
| CC(C)c1c(O)cc(/C=C/c2ccc(F)cn2)c(F)c1O [Compound 9, (E)-4-Fluoro-5-[2-(5-fluoropyridin-2-yl)vinyl]-2-isopropylbenzene-1,3-diol] | 0.02 | 99.46 | 98.65 | 97.46 | 92.06 | – | – | – | – |
| CC(C)c1c(O)cc(/C=C/c2ccccc2)c(F)c1O [Compound 3, (E)-4-Fluoro-2-isopropyl-5-styrylbenzene-1,3-diol] | 0.057 | – | – | – | – | 97.25 | 97.33 | 96.06 | 97.71 |
| CC(C)c1c(O)cc(/C=C/c2ccccc2F)c(F)c1O [Compound 6, (E)-4-Fluoro-5-(2-fluorostyryl)-2-isopropylbenzene-1,3-diol] | 0.01 | 98.31 | 98.37 | 98.27 | 98.68 | – | – | – | – |
| (E)-4-Fluoro-2-isopropyl-5-[2-(pyridin-2-yl)vinyl]benzene-1,3-diol [Compound 16] | – | 97.58 | 97.52 | 96.88 | 96.81 | – | – | – | – |
| CC(C)c1c(O)cc(/C=C/c2cccc(F)n2)c(F)c1O [Compound 14, (E)-4-Fluoro-5-[2-(6-fluoropyridin-2-yl)vinyl]-2-isopropylbenzene-1,3-diol] | 0.027 | 88.32 | 87.83 | 88.31 | 84.37 | – | – | – | – |
| Cc1c(/C=C/c2ccccc2)cc(O)c(C(C)C)c1O [Compound 2, (E)-2-Isopropyl-4-methyl-5-styrylbenzene-1,3-diol] | 0.177 | – | – | – | – | – | – | – | – |
| CC(C)c1c(O)cc(/C=C/c2ccc(F)cc2)c(F)c1O [Compound 5, (E)-4-Fluoro-5-(4-fluorostyryl)-2-isopropylbenzene-1,3-diol] | 0.006 | 99.30 | 98.80 | 99.22 | 99.06 | – | – | – | – |
| CC(C)c1c(O)cc(/C=C/c2ncccc2F)c(F)c1O [Compound 7, (E)-4-Fluoro-5-[2-(3-fluoropyridin-2-yl)vinyl]-2-isopropylbenzene-1,3-diol] | 0.03 | 98.70 | 95.84 | 91.56 | 89.57 | – | – | – | – |
| CC(C)c1c(O)cc(/C=C/c2ncccc2Cl)c(F)c1O [Compound 8, (E)-5-[2-(3-Chloropyridin-2-yl)vinyl]-4-fluoro-2-isopropylbenzene-1,3-diol] | 0.013 | – | – | – | – | – | – | – | – |
| CC(C)c1c(O)cc(/C=C/c2ccccc2)cc1O [Benvitimod, reference compound] | – | – | – | – | – | 99.87 | 85.14 | 74.20 | 69.53 |
